From patent US7855310B2, “AH receptor antagonists” (SYMRISE GmbH & Co. KG, priority 2006, dated 2010)

target: T1, AhR (Homo sapiens, UniProt P35869); assay: Fluorescence microscopy of GFP-coupled AhR translocation in HaCaT cells transfected with pEGFP-AhR; type: cell-based; details: in the presence and absence of UVB light
T1 construct: endogenous in cells; host or cells: HaCaT keratinocytes
T1 sequence (P35869 11-848): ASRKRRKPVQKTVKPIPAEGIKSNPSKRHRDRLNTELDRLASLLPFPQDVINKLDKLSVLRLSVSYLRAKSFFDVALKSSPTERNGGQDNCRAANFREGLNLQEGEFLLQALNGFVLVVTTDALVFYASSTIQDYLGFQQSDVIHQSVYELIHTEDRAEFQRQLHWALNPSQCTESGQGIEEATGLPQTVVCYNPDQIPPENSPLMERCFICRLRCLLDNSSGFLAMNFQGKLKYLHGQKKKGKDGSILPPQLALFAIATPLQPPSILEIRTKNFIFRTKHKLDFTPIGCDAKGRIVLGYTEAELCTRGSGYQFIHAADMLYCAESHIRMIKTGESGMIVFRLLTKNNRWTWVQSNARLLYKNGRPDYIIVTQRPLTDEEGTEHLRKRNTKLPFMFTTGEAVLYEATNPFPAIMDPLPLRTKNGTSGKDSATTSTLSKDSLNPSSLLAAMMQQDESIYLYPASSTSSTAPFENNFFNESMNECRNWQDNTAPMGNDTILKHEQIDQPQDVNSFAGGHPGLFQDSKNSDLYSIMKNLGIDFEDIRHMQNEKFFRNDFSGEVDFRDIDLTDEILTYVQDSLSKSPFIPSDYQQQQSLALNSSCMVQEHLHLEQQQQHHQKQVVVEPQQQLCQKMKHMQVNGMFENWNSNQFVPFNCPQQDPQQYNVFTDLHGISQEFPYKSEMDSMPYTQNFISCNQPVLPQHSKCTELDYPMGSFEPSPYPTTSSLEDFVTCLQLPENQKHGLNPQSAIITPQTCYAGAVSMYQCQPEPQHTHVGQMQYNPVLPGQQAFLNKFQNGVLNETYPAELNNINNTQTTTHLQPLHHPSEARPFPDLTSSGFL
Source text: HaCaT keratinocytes were cultivated in DMEM containing 10% of foetal calf serum. The cells were irradiated with UVB in PBS (phosphate buffered saline). For irradiation with UVB we used a TL20W/12RS lamp, which contains four parallel tubes (Philips, Eindhoven, The Netherlands) and emits the bulk of its energy in the UVB range (290-320 nm). The emission peak of the lamp is at 310 nm. Control cells were subjected to the same treatment but were not irradiated. To inhibit the AhR, the cells were treated with the test substances 1 h prior to irradiation.
HaCaT cells were plated out on compartmentalized microscope slides at a cell density of 5×10^4 cells/compartment. Some were pretreated for 1 h with the test substances. After 24 h these were transfected with plasmid pEGFP-AhR by means of the FuGene 6 transfection reagent (Roche, Mannheim, Germany) according to the manufacturer's instructions. After a further 24 h the transfected cells were irradiated with 100 J/m^2 of UVB. After 40 min the cells were fixed for 10 min with 4% paraformaldehyde and washed with PBS. The slides were dried and covered with Vectashield mounting medium (Vector Laboratories, Burlingame, Calif., USA). The GFP-coupled AhR was visualized by means of a fluorescence microscope (Olympus, Hamburg, Germany) and photographed with a ColorView XS digital camera (Olympus).

Structure (SMILES) | translocation of the AhR into the cell nucleus
COc1cc(-c2cc(=O)c3ccccc3o2)ccc1[N+](=O)[O-] [3-methoxy-4-nitroflavone] | inhibited the translocation of the AhR into the cell nucleus

test system: not listed separately; assay: Light stability test (solar simulator, HPLC quantification); type: physicochemical; details: solar simulator 40 W/m^2, 2 h; wt. % based on sum E isomer + Z isomer
Experimental: 20 μl of a 1-3 wt. % solution of each of the test compounds of formula (I) in a low-volatility solvent (e.g. isopropyl myristate, miglyol or glycerol) are distributed uniformly over microscope slides using a pipette. These loaded slides are then irradiated in a solar simulator with an intensity of 40 W/m^2 (for 2 h or 4 h in each case).
When the irradiation has ended, the slides are each separately laid in a glass dish containing an organic solvent (methanol, isopropanol, etc.) and the organic substances present thereon are detached in an ultrasonic bath. The resulting solutions are each transferred to a 10 ml or 25 ml volumetric flask and made up to the calibration mark with solvent. Non-irradiated slides are treated likewise as references.
The samples (contents of the respective volumetric flasks) are evaluated via HPLC quantification. These values are compared with the non-irradiated references and the degradation rate during irradiation is reported in [wt. %] per unit time, based on the sum [E isomer+Z isomer].

Degradation after 2 h | Structure (SMILES)
77% | Oc1ccc(C=Cc2cc(O)cc(O)c2)cc1 (mixture of isomers) [Resveratrol (E/Z mixture), 3,5,4′-trihydroxystilbene, reference compound]
4% | COc1ccc(/C=C2/C(=O)c3ccccc3C2(C)C)cc1OC [(Ib)]
7% | CCCCOc1cc2c(cc1C)C(=O)/C(=C/c1ccc(OC)cc1)C2(C)C [(Id)]
7% | COc1cc2c(cc1OC)C(C)(C)/C(=C\c1ccccc1)C2=O [Compound (Ia)]
95% | CC1=C(/C=C/C(C)=C/C=C/C(C)=C/C(=O)O)C(C)(C)CCC1 [Vitamin A acid, reference compound]

same assay, conditions: solar simulator 40 W/m^2, 4 h; wt. % based on sum E isomer + Z isomer

Degradation after 4 h | Structure (SMILES)
84% | Oc1ccc(C=Cc2cc(O)cc(O)c2)cc1 (mixture of isomers) [Resveratrol (E/Z mixture), 3,5,4′-trihydroxystilbene, reference compound]
15% | COc1ccc(/C=C2/C(=O)c3ccccc3C2(C)C)cc1OC [(Ib)]
11% | CCCCOc1cc2c(cc1C)C(=O)/C(=C/c1ccc(OC)cc1)C2(C)C [(Id)]
7% | COc1cc2c(cc1OC)C(C)(C)/C(=C\c1ccccc1)C2=O [Compound (Ia)]
100% | CC1=C(/C=C/C(C)=C/C=C/C(C)=C/C(=O)O)C(C)(C)CCC1 [Vitamin A acid, reference compound]
